Source: patent EP0349354A1, “Peptides PF10 to PF19 from a retro virus HIV, method for the synthesis of these peptides and their use, particularly in diagnostics” (INSTITUT PASTEUR, priority 1988, dated 1990)

Key:
anticorps anti-nef = assay: ELISA for detection of anti-nef antibodies on coated peptides or nef; type: binding, humain; conditions: 500 ng coated per well; for intensité de l'immunoréactivité (OD), Serum 1: Serum 1, anti-nef positive; for intensité de l'immunoréactivité (OD), Serum 2: Serum 2, anti-nef positive; for intensité de l'immunoréactivité (OD), Serum 3: Serum 3, anti-nef positive; for intensité de l'immunoréactivité (OD), Serum 4: Serum 4, anti-nef positive; for intensité de l'immunoréactivité (OD), Serum 5: Serum 5, anti-nef positive; for intensité de l'immunoréactivité (OD), Serum 6: Serum 6, anti-nef positive; for intensité de l'immunoréactivité (OD), Serum 7: Serum 7, anti-nef positive; for intensité de l'immunoréactivité (OD), Serum 8: Serum 8, anti-nef positive; for intensité de l'immunoréactivité (OD), Serum 9: Serum 9, anti-nef positive; for intensité de l'immunoréactivité (OD), Serum 10: Serum 10, anti-nef positive; for intensité de l'immunoréactivité (OD), Serum 11: Serum 11, anti-nef positive; for intensité de l'immunoréactivité (OD), Serum 12: Serum 12, anti-nef positive; for intensité de l'immunoréactivité (OD), Serum 13: Serum 13, anti-nef positive; for intensité de l'immunoréactivité (OD), Serum 14: Serum 14, anti-nef positive; for intensité de l'immunoréactivité (OD), Serum 15: Serum 15, anti-nef positive; for intensité de l'immunoréactivité (OD), Serum 16: Serum 16, anti-nef positive; for intensité de l'immunoréactivité (OD), Serum 17: Serum 17, anti-nef positive; for intensité de l'immunoréactivité (OD), Serum 18: Serum 18, anti-nef positive; for intensité de l'immunoréactivité (OD), Serum 19: Serum 19, anti-nef positive; for intensité de l'immunoréactivité (OD), Serum 20: Serum 20, anti-nef positive; for intensité de l'immunoréactivité (OD), Serum 21: Serum 21, anti-nef positive; for intensité de l'immunoréactivité (OD), Serum 22: Serum 22, anti-nef positive; for intensité de l'immunoréactivité (OD), Serum 23: Serum 23, anti-nef positive; for intensité de l'immunoréactivité (OD), Serum 24: Serum 24, anti-nef positive; for intensité de l'immunoréactivité (OD), Serum 25: Serum 25, anti-nef positive; for intensité de l'immunoréactivité (OD), Serum 26: Serum 26, anti-nef positive; for intensité de l'immunoréactivité (OD), Serum 27: Serum 27, anti-nef positive; for intensité de l'immunoréactivité (OD), Serum 28: Serum 28, anti-nef positive; for intensité de l'immunoréactivité (OD), Serum 29: Serum 29, anti-nef positive; for intensité de l'immunoréactivité (OD), Serum 30: Serum 30, anti-nef positive; for intensité de l'immunoréactivité (OD), Serum 31: Serum 31, anti-nef positive; for intensité de l'immunoréactivité (OD), Serum 32: Serum 32, anti-nef negative control serum; for intensité de l'immunoréactivité (OD), Serum 33: Serum 33, anti-nef negative control serum
Protocol: Des plaques de microtitration à 96 puits ont été recouvertes une nuit avec 500 ng de protéine nef bactérienne, à 37°C ou avec 500 ng de peptides synthétiques par puits dans 50µl de PBS à pH 7,4. Après saturation avec 400 µl de PBS pH 7,4, contenant 5% de caséine, durant 1 heure à 37°C et lavage avec PBS à pH 7,4, 0,5% de BSA, 0,01% tween, 50 µl de sérums à différentes dilutions ont été ajoutés pendant 2 heures à 37°C. Après le rinçage, 50µl de complexes d'IgG de souris anti-humaine-(H + L)-peroxydase 1:1000 ont été incubés pendant 1 heure à 37°C. Après un nouveau rinçage, 100µl de OPD ont été ajoutés pendant 30mn à température ambiante dans l'obscurité. La réaction de l'enzyme a été arrêtée par addition de 50µl d'acide sulfurique 4N et la densité optique des plaques a été lue à 492 nm/620 nm. Les plaques recouvertes avec la caséine ont été utilisées comme contrôle négatif.
En vue d'étudier la possibilité d'utiliser des peptides synthétiques en tant qu'antigènes pour la détection d'anticorps anti-nef chez des patients infectés par HIV, 8 peptides synthétiques couvrant la totalité de la séquence de la protéine nef de HIV-1 (figure 4) ont été utilisés dans un test ELISA avec 31 sérums anti-nef positifs et 2 sérums anti-nef négatifs utilisés comme contrôle. Les recombinants nef ont été utilisés comme contrôle positif dans les tests ELISA et la caséine a été utilisée comme contrôle négatif. Les résultats de ces expériences sont donnés dans le tableau 4 qui illustre l'essai suivant: Essai ELISA sur 31 sérums anti-nef-positifs et 2 sérums anti-nef- négatifs, soit pré-recouverts avec des peptides synthétiques (PF 11 à PF 18), soit en utilisant nef, la caséine ou un mélange de peptides PF 12 et PF 17. Les sérums ont été sélectionnés au hasard parmi des sérums anti-nef positifs et anti-nefs négatifs testés par la méthode RIA en utilisant ¹²⁵I nef. L'intensité de l'immunoradioactivité est notée "-" pour une densité optique (OD) inférieure à 0,2; "+" pour OD = 0,2 à 0,4; "++" pour OD = 0,4 à 0,8 et "+++" pour OD = 0,8 à 2,0.

[1] = test system: anticorps anti-protéine F; assay: Western blot test on peptide spots with sera of HIV-1 infected patients; type: binding, humain; set-up: key to réaction avec sérum CHA 1/300, 10µl / réaction avec sérum LOM 1/100, 10µl / réaction avec sérum LOM 1/100, 5µl / réaction avec sérum CHA 1/300, 5µl / réaction avec sérum CHA 1/300, 2µl / réaction avec sérum CHA 1/300, 1µl / réaction avec sérum 1545 1/200, 10µl: ++ signifiant une réaction plus marquée
Protocol: Pour les besoins du test, les différents peptides PF16, PF19, PF13, PF17 utilisés sont dilués à une concentration de 2 mg/ml.
Sur une bande de papier BIORAD pour transblot, on dépose différents spots : 1µl, 2µl, 5µl, 10µl.
Après séchage on pratique un test Western Blot classique en utilisant comme anticorps des sérums de patients infectés par le virus HIV-1, positifs pour la protéine F, à des dilutions variant de 1/100 à 1/300.
Les peptides testés permettent d'aboutir aux résultats résumés dans le tableau 2 avec trois sérums différents anti-F ++ (++ signifiant une réaction plus marquée).

Sequence	intensité de l'immunoréactivité (OD), Serum 1 (anticorps anti-nef)	intensité de l'immunoréactivité (OD), Serum 2 (anticorps anti-nef)	intensité de l'immunoréactivité (OD), Serum 3 (anticorps anti-nef)	intensité de l'immunoréactivité (OD), Serum 4 (anticorps anti-nef)	intensité de l'immunoréactivité (OD), Serum 5 (anticorps anti-nef)	intensité de l'immunoréactivité (OD), Serum 6 (anticorps anti-nef)	intensité de l'immunoréactivité (OD), Serum 7 (anticorps anti-nef)	intensité de l'immunoréactivité (OD), Serum 8 (anticorps anti-nef)	intensité de l'immunoréactivité (OD), Serum 9 (anticorps anti-nef)	intensité de l'immunoréactivité (OD), Serum 10 (anticorps anti-nef)	intensité de l'immunoréactivité (OD), Serum 11 (anticorps anti-nef)	intensité de l'immunoréactivité (OD), Serum 12 (anticorps anti-nef)	intensité de l'immunoréactivité (OD), Serum 13 (anticorps anti-nef)	intensité de l'immunoréactivité (OD), Serum 14 (anticorps anti-nef)	intensité de l'immunoréactivité (OD), Serum 15 (anticorps anti-nef)	intensité de l'immunoréactivité (OD), Serum 16 (anticorps anti-nef)	intensité de l'immunoréactivité (OD), Serum 17 (anticorps anti-nef)	intensité de l'immunoréactivité (OD), Serum 18 (anticorps anti-nef)	intensité de l'immunoréactivité (OD), Serum 19 (anticorps anti-nef)	intensité de l'immunoréactivité (OD), Serum 20 (anticorps anti-nef)	also measured
XASRDLEKHGAITSSNTAATNAACAWLEAQEEEEZ [PF13]	+ (pour OD = 0,2 à 0,4)	- (pour une densité optique (OD) inférieure à 0,2)	+++ (pour OD = 0,8 à 2,0)	+ (pour OD = 0,2 à 0,4)	- (pour une densité optique (OD) inférieure à 0,2)	- (pour une densité optique (OD) inférieure à 0,2)	++ (pour OD = 0,4 à 0,8)	++ (pour OD = 0,4 à 0,8)	++ (pour OD = 0,4 à 0,8)	- (pour une densité optique (OD) inférieure à 0,2)	- (pour une densité optique (OD) inférieure à 0,2)	- (pour une densité optique (OD) inférieure à 0,2)	- (pour une densité optique (OD) inférieure à 0,2)	++ (pour OD = 0,4 à 0,8)	- (pour une densité optique (OD) inférieure à 0,2)	- (pour une densité optique (OD) inférieure à 0,2)	- (pour une densité optique (OD) inférieure à 0,2)	- (pour une densité optique (OD) inférieure à 0,2)	- (pour une densité optique (OD) inférieure à 0,2)	- (pour une densité optique (OD) inférieure à 0,2)	intensité de l'immunoréactivité (OD), Serum 21 (anticorps anti-nef): - (pour une densité optique (OD) inférieure à 0,2); intensité de l'immunoréactivité (OD), Serum 22 (anticorps anti-nef): - (pour une densité optique (OD) inférieure à 0,2); intensité de l'immunoréactivité (OD), Serum 23 (anticorps anti-nef): - (pour une densité optique (OD) inférieure à 0,2); intensité de l'immunoréactivité (OD), Serum 24 (anticorps anti-nef): - (pour une densité optique (OD) inférieure à 0,2); intensité de l'immunoréactivité (OD), Serum 25 (anticorps anti-nef): - (pour une densité optique (OD) inférieure à 0,2); intensité de l'immunoréactivité (OD), Serum 26 (anticorps anti-nef): - (pour une densité optique (OD) inférieure à 0,2); intensité de l'immunoréactivité (OD), Serum 27 (anticorps anti-nef): - (pour une densité optique (OD) inférieure à 0,2); intensité de l'immunoréactivité (OD), Serum 28 (anticorps anti-nef): - (pour une densité optique (OD) inférieure à 0,2); intensité de l'immunoréactivité (OD), Serum 29 (anticorps anti-nef): ++ (pour OD = 0,4 à 0,8); intensité de l'immunoréactivité (OD), Serum 30 (anticorps anti-nef): - (pour une densité optique (OD) inférieure à 0,2); intensité de l'immunoréactivité (OD), Serum 31 (anticorps anti-nef): - (pour une densité optique (OD) inférieure à 0,2); intensité de l'immunoréactivité (OD), Serum 32 (anticorps anti-nef): - (pour une densité optique (OD) inférieure à 0,2); intensité de l'immunoréactivité (OD), Serum 33 (anticorps anti-nef): - (pour une densité optique (OD) inférieure à 0,2); réaction avec sérum 1545 1/200, 10µl ([1]; serum 1545 diluted 1/200, spot 10µl of peptide at 2 mg/ml): tr; réaction avec sérum CHA 1/300, 1µl ([1]; serum CHA diluted 1/300, spot 1µl of peptide at 2 mg/ml): tr; réaction avec sérum CHA 1/300, 2µl ([1]; serum CHA diluted 1/300, spot 2µl of peptide at 2 mg/ml): tr
XCRGGLEGMFYSERRHKILNIYLEKEEGIIADZ [PF19]																					réaction avec sérum CHA 1/300, 5µl ([1]; serum CHA diluted 1/300, spot 5µl of peptide at 2 mg/ml): ++; réaction avec sérum CHA 1/300, 10µl ([1]; serum CHA diluted 1/300, spot 10µl of peptide at 2 mg/ml): ++; réaction avec sérum LOM 1/100, 5µl ([1]; serum LOM diluted 1/100 (column outside the heading of positive sera), spot 5µl of peptide at 2 mg/ml): tr; réaction avec sérum LOM 1/100, 10µl ([1]; serum LOM diluted 1/100 (column outside the heading of positive sera), spot 10µl of peptide at 2 mg/ml): tr; réaction avec sérum P.6. 1/200, 5µl ([1]; serum P.6. diluted 1/200, spot 5µl of peptide at 2 mg/ml): tr
XGGKWSKSSVVGWPTVRERMRRAEPAADGVGAYCZ [PF11]	- (pour une densité optique (OD) inférieure à 0,2)	- (pour une densité optique (OD) inférieure à 0,2)	- (pour une densité optique (OD) inférieure à 0,2)	- (pour une densité optique (OD) inférieure à 0,2)	- (pour une densité optique (OD) inférieure à 0,2)	- (pour une densité optique (OD) inférieure à 0,2)	++ (pour OD = 0,4 à 0,8)	- (pour une densité optique (OD) inférieure à 0,2)	- (pour une densité optique (OD) inférieure à 0,2)	- (pour une densité optique (OD) inférieure à 0,2)	++ (pour OD = 0,4 à 0,8)	+ (pour OD = 0,2 à 0,4)	- (pour une densité optique (OD) inférieure à 0,2)	- (pour une densité optique (OD) inférieure à 0,2)	- (pour une densité optique (OD) inférieure à 0,2)	- (pour une densité optique (OD) inférieure à 0,2)	- (pour une densité optique (OD) inférieure à 0,2)	- (pour une densité optique (OD) inférieure à 0,2)	+++ (pour OD = 0,8 à 2,0)	- (pour une densité optique (OD) inférieure à 0,2)	intensité de l'immunoréactivité (OD), Serum 21 (anticorps anti-nef): + (pour OD = 0,2 à 0,4); intensité de l'immunoréactivité (OD), Serum 22 (anticorps anti-nef): - (pour une densité optique (OD) inférieure à 0,2); intensité de l'immunoréactivité (OD), Serum 23 (anticorps anti-nef): - (pour une densité optique (OD) inférieure à 0,2); intensité de l'immunoréactivité (OD), Serum 24 (anticorps anti-nef): - (pour une densité optique (OD) inférieure à 0,2); intensité de l'immunoréactivité (OD), Serum 25 (anticorps anti-nef): +++ (pour OD = 0,8 à 2,0); intensité de l'immunoréactivité (OD), Serum 26 (anticorps anti-nef): +++ (pour OD = 0,8 à 2,0); intensité de l'immunoréactivité (OD), Serum 27 (anticorps anti-nef): - (pour une densité optique (OD) inférieure à 0,2); intensité de l'immunoréactivité (OD), Serum 28 (anticorps anti-nef): + (pour OD = 0,2 à 0,4); intensité de l'immunoréactivité (OD), Serum 29 (anticorps anti-nef): + (pour OD = 0,2 à 0,4); intensité de l'immunoréactivité (OD), Serum 30 (anticorps anti-nef): - (pour une densité optique (OD) inférieure à 0,2); intensité de l'immunoréactivité (OD), Serum 31 (anticorps anti-nef): +++ (pour OD = 0,8 à 2,0); intensité de l'immunoréactivité (OD), Serum 32 (anticorps anti-nef): - (pour une densité optique (OD) inférieure à 0,2); intensité de l'immunoréactivité (OD), Serum 33 (anticorps anti-nef): - (pour une densité optique (OD) inférieure à 0,2)
